Assay results: publication PMC7412550 (Viruses, 2020)

What was measured:
in vitro = conditions: human
VSV/HIV-1GFP = format: cell-based
HIV-1 IN = system: HIV-1 IN; parameters: method as in ref 30 = [30]; conditions: enzymatic assay; cited from earlier work
HIV-1 NL4.3 wt = conditions: for SI (selectivity index): ratio between the CC50 and the EC50; for EC50: read-out: HIV-1 wt MT EC50, HIV-1 NL4.3 wt, MT4 cells, MTT, 5 days post infection, mean and SD of three experiments
HIV-1 RT RNase H = conditions: Table S2; biologic data previously reported; cited from earlier work
[1] = biological target: HIV-1 RT-associated RDDP activity (wt RT) (Human immunodeficiency virus type 1 group M subtype B, UniProt P04585); test: HIV-1 RNA-dependent DNA polymerase (RDDP) activity; format: biochemical
[2] = biological target: HIV-1 RT-associated RNase H (wt RT) (Human immunodeficiency virus type 1 group M subtype B, UniProt P04585); test: HIV-1 DNA polymerase-independent RNase H activity, wt RT
MT4 cells = conditions: read-out: MT4 CC50; non-infected MT4 cells, MTT
R557A RT RNase H [3] = biological target: T1, R557A RT RNase H (Human immunodeficiency virus type 1 group M subtype B, UniProt P04585, R1144A); parameters: method as in ref 26,27 = [26]; conditions: RNase H function; cited from earlier work
R448A RT RNase H [4] = biological target: T2, R448A RT RNase H (Human immunodeficiency virus type 1 group M subtype B, UniProt P04585, R1035A); test: HIV-1 DNA polymerase-independent RNase H activity, R448A RT; conditions: RNase H function; p-value 0.5545
Q475A RT RNase H = Q475A RT RNase H (Human immunodeficiency virus type 1 group M subtype B, UniProt P04585, Q1062A); test: HIV-1 DNA polymerase-independent RNase H activity, Q475A RT; conditions: RNase H function; p-value = 0.0008
R448A RT RNase H [5] = biological target: T2, R448A RT RNase H; parameters: method as in ref 26,27 = [26]; conditions: RNase H function; cited from earlier work
R557A RT RNase H [6] = biological target: T1, R557A RT RNase H; test: HIV-1 DNA polymerase-independent RNase H activity, R557A RT; conditions: RNase H function; p-value 0.9682

Which CC50 (in vitro) does the source give for `O=C(N/N=C/c1cc(O)c(O)cc1O)c1cc(O)c(O)c(O)c1` [Compound 21] here?
The CC50 was 31.8 ± 0.4 µM.

And the time-of-addition behaviour (VSV/HIV-1GFP)?
The time-of-addition behaviour was “retained its potency over time”.

What about the “activity against HIV-1 IN” value (HIV-1 IN) of the same compound?
The value was “inhibited”.

And the “SI (selectivity index)” value (HIV-1 NL4.3 wt)?
The value was 6.4.

And the IC50 (HIV-1 RT RNase H)?
Its IC50 is 0.62 ± 0.1 µM.

Which results are given for `O=C1Nc2ccc(Cl)cc2[C@@](C#CC2CC2)(C(F)(F)F)O1` [EFV, efavirenz]?
CC50 (in vitro): > 0.31 µM; SI (selectivity index) (HIV-1 NL4.3 wt): >6.25

Which CC50 (in vitro) does the source give for `O=C(N/N=C/c1ccccc1O)c1cc(O)c(O)c(O)c1` [Compound 13, N’-(2-hydroxy-benzylidene)-3,4,5-trihydroxybenzoylhydrazone] here?
The CC50 was 61.5 ± 2.2 µM.

And the “time after infection at which activity is lost (time-of-addition)” value (VSV/HIV-1GFP)?
Its value is 6 h.

What about the “inhibitory effect on RDDP activity at 25 μM” value ([1]; 25 μM) of the same compound?
The value was “no inhibitory effect”.

And the “fold less potent against RT polymerase activity than RNase H function” value ([1]; RDDP vs RNase H)?
The value was greater than 20 fold.

And the IC50 ([1]; wt RT, inhibitor and substrate added before the enzyme (competition))?
The IC50 was 81 µM.

And the “activity against HIV-1 IN” value (HIV-1 IN)?
Its value is “inactivity”.

And the “SI (selectivity index)” value (HIV-1 NL4.3 wt)?
The value was 6.1.

And the EC50 (HIV-1 NL4.3 wt)?
Its EC50 is 10.1 ± 4.7 µM.

And the IC50 ([2]; RNase H IC50 against wt enzyme (site-directed mutagenesis study, Figure 4), determined in parallel with mutants)?
Its IC50 is 6.9 µM.

And the IC50 ([2]; RT-associated RNase H activity IC50 (comparative inhibition, Figure 2B), inhibitor and substrate added before the enzyme (competition))?
The IC50 was 3.6 µM.

What about the IC50 (HIV-1 RT RNase H) of the same compound?
The IC50 was 2.32 ± 0.75 µM.

What does the source list for `CCOC(=O)C(=O)CC(=O)/C=C/c1cccn1Cc1ccccc1Cl` [RDS1759]?
CC50 (MT4 cells): 39 ± 4.4 µM; activity against R557A HIV-1 RT (R557A RT RNase H [3]): fully active; potency of inhibition on R448A RT compared to wt RT (R448A RT RNase H [4]): not significantly affected; SI (selectivity index) (HIV-1 NL4.3 wt): 4.7; EC50 (HIV-1 NL4.3 wt): 8.2 ± 0.9 µM; potency of inhibition on Q475A RT compared to wt RT (Q475A RT RNase H): significantly lost its potency; activity against R448A HIV-1 RT (R448A RT RNase H [5]): fully active; potency of inhibition on R557A RT compared to wt RT (R557A RT RNase H [6]): not significantly affected

Which results are given for `Cc1cn([C@H]2C[C@H](N=[N+]=[N-])[C@@H](CO)O2)c(=O)[nH]c1=O` [AZT, azidothymidine]?
CC50 (in vitro): > 3.7 µM; SI (selectivity index) (HIV-1 NL4.3 wt): >500

With `CC(C)c1ccc(O)c(=O)c(O)c1` [beta-thujaplicinol] as the compound, how does the “activity against R557A HIV-1 RT” value (R557A RT RNase H [3]) read?
Its value is “fully active”.

What about the “activity against R448A HIV-1 RT” value (R448A RT RNase H [5]) of the same compound?
The value was “fully active”.

Which CC50 (in vitro) does the source give for `Cc1nnc(C(=O)NC(C)(C)c2nc(C(=O)NCc3ccc(F)cc3)c(O)c(=O)n2C)o1` [RAL, raltegravir] here?
Its CC50 is greater than 2.25 µM.

What about the time-of-addition behaviour (VSV/HIV-1GFP) of the same compound?
The time-of-addition behaviour was “retained its potency over time”.

With `Cc1ccnc2c1NC(=O)c1cccnc1N2C1CC1` [NVP, nevirapine] as the compound, how does the CC50 (in vitro) read?
Its CC50 is greater than 3.7 µM.

What about the “SI (selectivity index)” value (HIV-1 NL4.3 wt) of the same compound?
Its value is greater than 5.5.
